# From patent US20250275535A1, “OLIVE TREE BIOMASS EXTRACT” (Veos Pharmaceuticals, S.L., priority 2024, published 2025)
# “And” between values parts separate entries of the source, which are not always exact repeats. Equal entries are not always repeated.
# How the values were obtained:
# Format in all cases: in vivo
# [1] = system: Rice seeds (Japanese cultivar, Taipei 309); experiment: Rice seed germination; settings: 12 wt. % hydroxytyrosol solution, 37° C., 14 days; water control 56%
# Procedure: Rice seeds (Japanese cultivar, Taipei 309) were incubated at 37° C. in a solution including 12 wt. % hydroxytyrosol for 14 days. As a control, rice seeds (Japanese cultivar, Taipei 309) were incubated at 37° C. in water for 14 days.
# Sorghum seeds (RT X 437) = experiment: Sorghum seed germination; settings: 12 wt. % hydroxytyrosol solution, room temperature, 14 days; water control 36% (FIG. 2C), 29% (repeat, FIG. 2D)
# Procedure: Sorghum seeds (RT X 437) were incubated at room temperature in a solution including 12 wt. % hydroxytyrosol for 14 days. As a control, sorghum seeds (RT X 437) were incubated at room temperature in water for 14 days.
# HSP70 = experiment: Fold change in protein expression (SDS-PAGE, Western blotting, densitometry); settings: 12% hydroxytyrosol, vs water control, FIG. 6
# Procedure: (§1) The effect of different hydroxytyrosol concentrations on crop stress resistance and protein production was examined. […] Protein quantification was conducted using SDS-PAGE and Western blotting for visualization, followed by densitometry analysis to measure fold increases in protein expression. Additionally, HPLC-DAD and mass spectrometry were utilized to confirm hydroxytyrosol stability and retention in plant tissue.
# other HSPs = experiment: as above; settings: 12% hydroxytyrosol, vs water control, FIG. 6
# Procedure: as §1
# [2] = system: low molecular weight proteins (sHSPs, LTPs, pathogenesis-related proteins, and LEA proteins); experiment: as above; settings: 12% hydroxytyrosol, vs water control, FIG. 6
# Procedure: as §1
# Rubisco = experiment: as above; settings: 12% hydroxytyrosol, vs water control, FIG. 6
# Procedure: as §1
# [3] = system: Corn seeds (field hybrid 7571); experiment: Corn seed germination; settings: 12 wt. % hydroxytyrosol solution, room temperature, 14 days; water control 27% (FIG. 1C), 33% (repeat, FIG. 1D)
# Procedure: Corn seeds (field hybrid 7571) were incubated at room temperature in a solution including 12 wt. % hydroxytyrosol for 14 days. As a control, corn seeds (field hybrid 7571) were incubated at room temperature in water for 14 days.
# Rice plants = experiment: Rice growth rate (column length); settings: 12 wt. % hydroxytyrosol
# Procedure: Rice plants were treated with 12 wt. % hydroxytyrosol over 28 days. As a control, rice plants were treated with water over 28 days. FIG. 4 depicts a line chart showing the column length of rice plants over 28 days. Table 1 provides the column length of rice plants treated with 12 wt. % hydroxytyrosol and water after 1, 14, and 28 days.
smiles,measurement,setting,value
OCCc1ccc(O)c(O)c1 [hydroxytyrosol],rice seeds germinated,[1],74%
same,sorghum seeds germinated,Sorghum seeds (RT X 437),78% and 77%
same,increase in HSP70 (fold change in protein expression),HSP70,2.99 ×
same,increase in other HSPs (fold change in protein expression),other HSPs,3.10 ×
same,increase in low molecular weight proteins (fold change in protein expression),[2],4.09 ×
same,increase in Rubisco (fold change in protein expression),Rubisco,1.72 ×
same,corn seeds germinated,[3],75% and 69%
same,column length of rice plants,"Rice plants; 1 day of treatment, water control 22 cm",35 cm
same,column length of rice plants,"Rice plants; 14 days of treatment, water control 39 cm",82 cm
same,column length of rice plants,"Rice plants; 28 days of treatment, water control 60 cm",112 cm
